Tests used:
Type in all cases: biochemical
[1] = target: T1, DNA gyrase (GyrA subunit) (Streptococcus pneumoniae, UniProt P0A4M0+Q8DPM2); test: supercoiled pBR322 DNA cleavage assay (cleavage complex stabilisation)
T1 construct: full-length GyrA reconstituted with GyrB; with GyrB, with DNA

[2] = target: T2, topoisomerase IV (ParC subunit, ParE30-ParC55 fusion) (Streptococcus pneumoniae, UniProt P72525+Q59961); test: X-ray co-crystal structures at […] and […] Å; DNA cleavage assay with purified enzyme; set-up: ParE30-ParC55 fusion protein (ParE TOPRIM domain + ParC breakage-reunion domain), C-terminal His6; with ParE (ParE30 TOPRIM domain), with 18-mer V-site or E-site gate DNA
Target sequence in this assay (Q59961 404-647): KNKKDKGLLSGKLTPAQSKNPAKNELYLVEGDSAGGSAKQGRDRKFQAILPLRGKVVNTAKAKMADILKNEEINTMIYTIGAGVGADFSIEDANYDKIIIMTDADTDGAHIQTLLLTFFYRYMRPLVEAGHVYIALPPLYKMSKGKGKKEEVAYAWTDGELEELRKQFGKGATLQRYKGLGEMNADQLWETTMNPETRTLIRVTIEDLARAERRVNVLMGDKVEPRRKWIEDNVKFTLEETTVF
Target sequence in this assay (P72525 1-490): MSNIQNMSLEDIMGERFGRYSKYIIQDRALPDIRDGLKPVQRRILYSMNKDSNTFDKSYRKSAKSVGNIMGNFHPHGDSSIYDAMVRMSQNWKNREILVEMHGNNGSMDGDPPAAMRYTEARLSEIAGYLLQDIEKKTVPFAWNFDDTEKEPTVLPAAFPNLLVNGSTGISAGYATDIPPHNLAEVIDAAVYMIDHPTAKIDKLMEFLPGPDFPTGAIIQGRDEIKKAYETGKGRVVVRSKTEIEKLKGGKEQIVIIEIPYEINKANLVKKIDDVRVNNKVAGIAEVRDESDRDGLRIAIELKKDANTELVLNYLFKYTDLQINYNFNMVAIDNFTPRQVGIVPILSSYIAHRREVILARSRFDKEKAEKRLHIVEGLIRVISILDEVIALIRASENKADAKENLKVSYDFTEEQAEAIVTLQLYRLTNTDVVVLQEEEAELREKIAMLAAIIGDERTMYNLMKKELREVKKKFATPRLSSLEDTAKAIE

[3] = target: T2, topoisomerase IV (ParC subunit, ParE30-ParC55 fusion); test: supercoiled pBR322 DNA cleavage assay (cleavage complex stabilisation); set-up: ParE30-ParC55 fusion protein; with ParE (ParE30 TOPRIM domain), with DNA
Target sequence in this assay (P72525 1-490): as above
Target sequence in this assay (Q59961 404-647): as the sequence (Q59961 404-647) above

T1 sequence (Q8DPM2 whole entry): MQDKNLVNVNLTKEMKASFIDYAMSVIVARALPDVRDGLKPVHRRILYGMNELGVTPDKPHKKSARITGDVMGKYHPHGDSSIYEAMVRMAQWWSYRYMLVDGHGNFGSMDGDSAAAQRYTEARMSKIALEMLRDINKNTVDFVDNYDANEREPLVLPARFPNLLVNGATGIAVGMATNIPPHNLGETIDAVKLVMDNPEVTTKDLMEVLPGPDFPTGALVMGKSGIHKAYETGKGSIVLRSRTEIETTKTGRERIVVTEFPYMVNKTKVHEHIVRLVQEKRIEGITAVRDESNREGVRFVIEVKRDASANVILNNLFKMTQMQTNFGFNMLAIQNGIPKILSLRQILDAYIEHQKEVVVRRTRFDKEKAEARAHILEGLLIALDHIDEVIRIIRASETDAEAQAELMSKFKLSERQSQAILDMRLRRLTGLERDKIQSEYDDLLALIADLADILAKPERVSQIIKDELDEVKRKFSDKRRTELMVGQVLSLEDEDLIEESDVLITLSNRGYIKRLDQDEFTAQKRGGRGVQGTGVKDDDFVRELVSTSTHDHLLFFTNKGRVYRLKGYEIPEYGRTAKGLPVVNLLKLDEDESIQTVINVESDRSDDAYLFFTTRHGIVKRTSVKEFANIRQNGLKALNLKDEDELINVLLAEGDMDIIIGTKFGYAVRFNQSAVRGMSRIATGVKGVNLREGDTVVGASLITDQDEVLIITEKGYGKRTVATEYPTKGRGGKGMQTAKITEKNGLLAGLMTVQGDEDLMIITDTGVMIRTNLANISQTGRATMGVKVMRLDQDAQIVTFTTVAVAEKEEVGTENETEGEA
T1 sequence (P0A4M0 whole entry): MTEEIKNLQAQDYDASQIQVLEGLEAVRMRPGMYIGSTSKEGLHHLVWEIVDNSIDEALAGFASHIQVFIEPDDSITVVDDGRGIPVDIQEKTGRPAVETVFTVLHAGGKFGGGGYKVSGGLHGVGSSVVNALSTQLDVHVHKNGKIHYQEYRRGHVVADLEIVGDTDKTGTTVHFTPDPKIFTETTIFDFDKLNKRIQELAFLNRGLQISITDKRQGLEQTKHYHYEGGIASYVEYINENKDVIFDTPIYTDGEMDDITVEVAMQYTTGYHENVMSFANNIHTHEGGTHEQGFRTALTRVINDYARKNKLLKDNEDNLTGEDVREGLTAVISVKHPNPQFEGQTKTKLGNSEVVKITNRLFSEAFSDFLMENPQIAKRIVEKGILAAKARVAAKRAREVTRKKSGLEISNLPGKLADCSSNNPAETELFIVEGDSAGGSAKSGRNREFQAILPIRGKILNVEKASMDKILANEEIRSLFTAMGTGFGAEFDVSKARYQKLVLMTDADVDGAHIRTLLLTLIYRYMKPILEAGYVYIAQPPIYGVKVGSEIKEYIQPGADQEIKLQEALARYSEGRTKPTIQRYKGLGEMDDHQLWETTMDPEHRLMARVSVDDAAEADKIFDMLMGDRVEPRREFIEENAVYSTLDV

| SMILES | supercoiled pBR322 DNA cleavage assay (cleavage complex stabilisation) [1] | X-ray co-crystal structures at 2.0 and 2.4 Å; DNA cleavage assay with purified e [2] [µM] | supercoiled pBR322 DNA cleavage assay (cleavage complex stabilisation) [3] [µM] |
| --- | --- | --- | --- |
| Nc1nc(-n2cc(C(=O)O)c(=O)c3cc(F)c(N4CC(O)C4)c(Cl)c32)c(F)cc1F [Delafloxacin] | 2.5–5.0 µM | 0.12 |  |
| C[C@H]1COc2c(N3CCN(C)CC3)c(F)cc3c(=O)c(C(=O)O)cn1c23 [Levofloxacin] |  |  | 2.5 |

Reference: paper PMC12217528, “Structural basis of topoisomerase targeting by delafloxacin” (Nature Communications, 2025)
